# From paper PMC10459693, “Toward Stability Enhancement of NTS1R-Targeted Radioligands: Structural Interventions on [^99mTc]Tc-DT1” (Pharmaceutics, 2023)
# Like-named read-outs stand apart in the source and are kept apart here. Peptide text beside a SMILES is read from it. * marks the point of attachment. Palmitoyl = CCCCCCCCCCCCCCCC(=O)*; X1 = NCCNCC(CNCCN)C(=O)*
# Assay: Biodistribution in SCID mice bearing AsPC-1 xenografts
# Type: in vivo
# Conditions: male, mouse, iv, total radioactivity; for tissue uptake at 4 h: 4 h pi; for tissue uptake at 24 h: 24 h pi
# Procedure: Twenty male severe combined immunodeficiency (SCID) mice (23.1 ± 1.6 g body weight, six weeks of age on arrival day; NCSR “Demokritos” Animal House, Athens, Greece) were used in the biodistribution experiments. Animals were subcutaneously inoculated in their right flanks with a sterile suspension of freshly harvested AsPC-1 cells (150 μL, 5 × 10^6 cells/animal), and 3–4 weeks later, they developed well-palpable tumors at the implantation sites. During this period, mice were housed in suitable facilities under sterile conditions with 12 h day/night cycles and were provided with sterilized chow food and drinking water ad libitum. At the date of the experiment, animals were randomly divided in groups of four and received through the tail vein a bolus of [^99mTc]Tc-DT9 (100 μL, 3 pmol in vehicle: PBS/EtOH 9/1 v/v with the addition of 0.1% Tween-80) plus vehicle (100 μL; controls at 4 and 24 h pi) or plus Lis (100 μg in 100 μL vehicle); the latter groups had additionally received per os 30 min in advance Entresto® (200 μL, 12 mg; Entresto®+Lis groups at 4 and 24 h pi). A further 4 h group of animals was treated with Entresto®, and 30 min later, mice were co-injected with excess NT and Lis (100 μg NT and 100 μg Lis in 100 μL vehicle—NTS1R block). At the predetermined time intervals, mice were euthanized and weighted, and their blood, organs, and tissue samples of choice as well as the implanted tumors were collected and weighted. Sample radioactivity was measured on the γ-counter together with proper standards of the injected dose. Results were calculated as percentage of injected activity per gram tissue (%IA/g) and provided as mean %IA/g values ± sd. For comparisons, a two-way ANOVA with Tukey’s post hoc analysis was adopted (PRISM^TM 6.0 GraphPad Software, San Diego, CA, USA). p-values < 0.05 were considered statistically significant.
# [1] = AsPC-1 tumor, 3 pmol, Controls, read-out: uptake in AsPC-1 Tumor
# [2] = AsPC-1 tumor, Entresto+Lis, read-out: uptake in AsPC-1 Tumor
# [3] = blood, 3 pmol, Controls, read-out: uptake in Blood
# [4] = blood, Entresto+Lis, read-out: uptake in Blood
# [5] = heart, 3 pmol, Controls, read-out: uptake in Heart
# [6] = heart, Entresto+Lis, read-out: uptake in Heart
# [7] = intestines, 3 pmol, Controls, read-out: uptake in Intestines
# [8] = intestines, Entresto+Lis, read-out: uptake in Intestines
# [9] = kidneys, 3 pmol, Controls, read-out: uptake in Kidneys
# [10] = kidneys, Entresto+Lis, read-out: uptake in Kidneys
# [11] = liver, 3 pmol, Controls, read-out: uptake in Liver
# [12] = liver, Entresto+Lis, read-out: uptake in Liver
# [13] = lungs, 3 pmol, Controls, read-out: uptake in Lungs
# [14] = lungs, Entresto+Lis, read-out: uptake in Lungs
# [15] = muscle, 3 pmol, Controls, read-out: uptake in Muscle
# [16] = muscle, Entresto+Lis, read-out: uptake in Muscle
# [17] = pancreas, 3 pmol, Controls, read-out: uptake in Pancreas
# [18] = pancreas, Entresto+Lis, read-out: uptake in Pancreas
# [19] = spleen, 3 pmol, Controls, read-out: uptake in Spleen
# [20] = spleen, Entresto+Lis, read-out: uptake in Spleen
# [21] = stomach, 3 pmol, Controls, read-out: uptake in Stomach
# [22] = stomach, Entresto+Lis, read-out: uptake in Stomach
structure (smiles),measurement,setting,value
"CCCCCCCCCCCCCCCC(=O)NCCCC[C@H](NC(=O)C(CNCCN)CNCCN)C(=O)N[C@@H](CCCNC(=N)N)C(=O)N[C@@H](CCCNC(=N)N)C(=O)N1CCC[C@H]1C(=O)N[C@@H](Cc1ccc(O)cc1)C(=O)N[C@H](C(=O)N[C@@H](CC(C)C)C(=O)O)[C@@H](C)CC [[^99mTc]Tc-DT9, metal not drawn] (X1-K(Palmitoyl)RRPYIL-OH)",tissue uptake at 4 h,[1],6.15 ± 0.92 %ID/g
same,tissue uptake at 24 h,[1],3.32 ± 0.35 %ID/g
same,tissue uptake at 4 h,"AsPC-1 tumor, Block (Entresto+Lis plus excess NT), read-out: uptake in AsPC-1 Tumor",3.68 ± 0.92 %ID/g
same,tissue uptake at 4 h,[2],5.24 ± 0.27 %ID/g
same,tissue uptake at 24 h,[2],2.84 ± 0.43 %ID/g
same,tissue uptake at 4 h,[3],4.63 ± 0.55 %ID/g
same,tissue uptake at 4 h,"blood, 3 pmol, all animal groups, read-out: radioactivity levels in the blood",> 4 %ID/g
same,tissue uptake at 24 h,[3],0.68 ± 0.18 %ID/g
same,tissue uptake at 4 h,"blood, Block (Entresto+Lis plus excess NT), read-out: uptake in Blood",4.25 ± 0.37 %ID/g
same,tissue uptake at 4 h,[4],4.32 ± 0.42 %ID/g
same,tissue uptake at 24 h,[4],0.7 ± 0.06 %ID/g
same,tissue uptake at 4 h,[5],3.12 ± 0.43 %ID/g
same,tissue uptake at 24 h,[5],0.64 ± 0.11 %ID/g
same,tissue uptake at 4 h,"heart, Block (Entresto+Lis plus excess NT), read-out: uptake in Heart",2.79 ± 0.47 %ID/g
same,tissue uptake at 4 h,[6],2.85 ± 2.48 %ID/g
same,tissue uptake at 24 h,[6],0.71 ± 0.06 %ID/g
same,tissue uptake at 4 h,[7],13 ± 4.6 %ID/g
same,tissue uptake at 24 h,[7],4.26 ± 0.61 %ID/g
same,tissue uptake at 4 h,"intestines, Block (Entresto+Lis plus excess NT), read-out: uptake in Intestines",6.27 ± 0.72 %ID/g
same,tissue uptake at 4 h,[8],7.9 ± 0.88 %ID/g
same,tissue uptake at 24 h,[8],5.37 ± 1.61 %ID/g
same,tissue uptake at 4 h,[9],9.53 ± 1.18 %ID/g
same,tissue uptake at 24 h,[9],3.81 ± 0.54 %ID/g
same,tissue uptake at 4 h,"kidneys, Block (Entresto+Lis plus excess NT), read-out: uptake in Kidneys",8.56 ± 0.87 %ID/g
same,tissue uptake at 4 h,[10],9.15 ± 0.62 %ID/g
same,tissue uptake at 24 h,[10],4.63 ± 0.15 %ID/g
same,tissue uptake at 4 h,[11],29.6 ± 3.77 %ID/g
same,tissue uptake at 24 h,[11],12.9 ± 1.66 %ID/g
same,tissue uptake at 4 h,"liver, Block (Entresto+Lis plus excess NT), read-out: uptake in Liver",30.9 ± 4.25 %ID/g
same,tissue uptake at 4 h,[12],28.4 ± 2.48 %ID/g
same,tissue uptake at 24 h,[12],17 ± 0.94 %ID/g
same,tissue uptake at 4 h,[13],8.8 ± 1.42 %ID/g
same,tissue uptake at 24 h,[13],3.42 ± 0.67 %ID/g
same,tissue uptake at 4 h,"lungs, Block (Entresto+Lis plus excess NT), read-out: uptake in Lungs",8.46 ± 1.26 %ID/g
same,tissue uptake at 4 h,[14],7.61 ± 0.64 %ID/g
same,tissue uptake at 24 h,[14],3.62 ± 0.94 %ID/g
same,tissue uptake at 4 h,[15],0.93 ± 0.13 %ID/g
same,tissue uptake at 24 h,[15],0.22 ± 0.02 %ID/g
same,tissue uptake at 4 h,"muscle, Block (Entresto+Lis plus excess NT), read-out: uptake in Muscle",0.82 ± 0.11 %ID/g
same,tissue uptake at 4 h,[16],0.81 ± 0.04 %ID/g
same,tissue uptake at 24 h,[16],0.24 ± 0.01 %ID/g
same,tissue uptake at 4 h,[17],2.1 ± 0.3 %ID/g
same,tissue uptake at 24 h,[17],0.75 ± 0.17 %ID/g
same,tissue uptake at 4 h,"pancreas, Block (Entresto+Lis plus excess NT), read-out: uptake in Pancreas",1.84 ± 0.41 %ID/g
same,tissue uptake at 4 h,[18],1.85 ± 0.18 %ID/g
same,tissue uptake at 24 h,[18],0.8 ± 0.07 %ID/g
same,tissue uptake at 4 h,[19],6.82 ± 1.11 %ID/g
same,tissue uptake at 24 h,[19],3.42 ± 0.54 %ID/g
same,tissue uptake at 4 h,"spleen, Block (Entresto+Lis plus excess NT), read-out: uptake in Spleen",6.18 ± 1.37 %ID/g
same,tissue uptake at 4 h,[20],5.47 ± 0.47 %ID/g
same,tissue uptake at 24 h,[20],4.47 ± 0.83 %ID/g
same,tissue uptake at 4 h,[21],3.09 ± 1.06 %ID/g
same,tissue uptake at 24 h,[21],1.73 ± 0.5 %ID/g
same,tissue uptake at 4 h,"stomach, Block (Entresto+Lis plus excess NT), read-out: uptake in Stomach",2.06 ± 0.47 %ID/g
same,tissue uptake at 4 h,[22],2.27 ± 0.38 %ID/g
same,tissue uptake at 24 h,[22],1.56 ± 0.31 %ID/g
